Where two headings read alike, the source gives them in different places.
Tests used:
pLai RLuc reporter virus = assay: microbe, parasite or virus in culture; assay type: cell-based, HIV
Protocol: To quantify the amount of protein binding to human serum, compounds were serially diluted (1:3) in DMSO and acoustically transferred onto 384-well assay plates via a Labcyte ECHO robot. Each plate contained up to 8 test compounds, including negative and positive controls, (DMSO, 5 μM AZT respectively). Assay plates were prepared in duplicate, and tested in either CCM (cell culture media) or HS/CCM (human serum/cell culture media). MT-4 cells were first pre-infected with pLai RLuc reporter virus for 2 h at 37° C., then further diluted in either CCM (RPMI media, 10% FBS, 1% P/S) or HS/CCM (RPMI media, 10% FBS, 50% HS, 1% P/S), and subsequently added to each plate using a Biotek Micro Flow dispenser. After a 72-h incubation in a humidified and temperature controlled incubator (37° C.), Renilla Glo (Promega) was added to all assay plates and chemiluminescence read using an Envision plate-reader. […] To determine the amount of protein binding, EC50 fold shifts (or EC50 shifts) were calculated by dividing EC50 (HS/CCM)/EC50 (CCM).

[1] = Cytotoxicity assay in MT-4 cells; assay type: cell-based, human; conditions: human, uninfected MT-4 cells, 5 days incubation; read-out: CC50
Outline: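 Infected MT-4 cells (HIV-1 IIIB, fresh 1:250 dilution of concentrated stock) or mock-infected cells exposed to compounds for 5 days at 37 °C. Viability by CellTiter-Glo luminescence; 5 μM AZT positive control, no-drug negative control. Uninfected cells used for cytotoxicity, with 10 μM puromycin as base-level cytotoxicity control.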

HIV-1 (IIIB) = assay: Antiviral assay in MT-4 cells (HIV MT-4 antiviral assay); assay type: cell-based; conditions: Human immunodeficiency virus 1, IIIB, MT4, 120 h, HIV-1 (IIIB) in MT-4 cells, 5 days incubation; read-out: EC50
Outline: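 MT-4 cells infected with HIV-1 IIIB (1:250 diluted stock) and exposed to 1:3 serially diluted compound in RPMI with 10% FBS. Viability read by CellTiter-Glo luminescence after 5 days at 37° C; mock-infected cells and 5 μM AZT as controls.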

[2] = Human immunodeficiency virus 1, 72 h, read-out: Antiviral Serum Shift RLuc 50% HS, HS/CCM (RPMI media, 10% FBS, 50% HS, 1% P/S), 72-h incubation
[3] = Human immunodeficiency virus 1, 72 h, read-out: Antiviral Serum Shift RLuc CCM, CCM (RPMI media, 10% FBS, 1% P/S), 72-h incubation

Row | SMILES | EC50 (pLai RLuc reporter virus; [2]) | EC50 (pLai RLuc reporter virus; [3]) | CC50 at 5 days [1] | EC50 (HIV-1 (IIIB)) | EC50 (pLai RLuc reporter virus; read-out: Antiviral Serum Shift RLuc 50% HS, HS/CCM (RPMI media, 10% FBS, 50% HS, 1% P/S), 72-h incubation)
1 | O=C(NCc1c(F)cc(F)cc1F)c1cn2c(c(O)c1=O)C(=O)N1C[C@H]2CCc2cccc(F)c21 [Example 46-2, (12R)-4-fluoro-7-hydroxy-6,8-dioxo-N-(2,4,6-trifluorobenzyl)-6,8,13,14-tetrahydro-12H-5,12-methanobenzo[e]pyrido[1,2-a][1,4]diazonine-9-carboxamide] | 2.91 nM | 0.204 nM | 12500 nM | 1.41 nM | –
2 | O=C(NCc1c(F)cc(F)cc1F)c1cn2c(c(O)c1=O)C(=O)N1CCC[C@H](Cl)[C@H]2C1 (single isomer, unassigned) [Example 72-1] | 5.36 nM | 0.281 nM | 9990 nM | 1.57 nM | –
3 | O=C(NCc1ccc(F)c(Cl)c1F)c1cn2c(c(O)c1=O)C(=O)N1C[C@@H]2CCc2ccc(F)cc21 [Example 90-2, (12S)—N-(3-chloro-2,4-difluorobenzyl)-3-fluoro-7-hydroxy-6,8-dioxo-6,8,13,14-tetrahydro-12H-5,12-methanobenzo[e]pyrido[1,2-a][1,4]diazonine-9-carboxamide] | 1.22 nM | 0.361 nM | > 20800 nM | 2.42 nM | –
4 | O=C(NCc1c(F)cc(F)cc1F)c1cn2c(c(O)c1=O)C(=O)N1C[C@@H]2CCC[C@@H]1CF [Example 164, (3R,7S)-3-(fluoromethyl)-12-hydroxy-1,11-dioxo-N-(2,4,6-trifluorobenzyl)-1,4,5,6,7,11-hexahydro-3H-2,7-methanopyrido[1,2-a][1,4]diazonine-10-carboxamide] | 13.3 nM | 0.333 nM | 10400 nM | 1.21 nM | –
5 | O=C(NCc1c(F)cc(F)cc1F)c1cn2c(c(O)c1=O)C(=O)N1CCCC(F)(F)[C@@H]2C1 (single isomer, unassigned) [Example 10-1] | 1140 nM | 1.02 nM | 37100 nM | 3.2 nM | –
6 | O=C(NCc1c(F)cc(F)cc1F)c1cn2c(c(O)c1=O)C(=O)N1Cc3cc(F)c(F)cc3C[C@H]2C1 [Example 88, (6S)-9,10-difluoro-1-hydroxy-2,14-dioxo-N-(2,4,6-trifluorobenzyl)-2,7,12,14-tetrahydro-6H-6,13-methanobenzo[f]pyrido[1,2-a][1,4]diazonine-3-carboxamide] | 1.62 nM | 0.269 nM | > 23400 nM | 1.61 nM | –
7 | O=C(NCc1c(F)cc(F)cc1F)c1cn2c(c(O)c1=O)C(=O)N1CCc3cc(F)c(F)cc3[C@@H]2C1 (single isomer, unassigned) [Example 110-2] | 53.7 nM | 4.81 nM | 6330 nM | 30.5 nM | –
8 | C[C@@H]1C=C[C@H](C)N2C[C@H]1n1cc(C(=O)NCc3c(F)cc(F)cc3F)c(=O)c(O)c1C2=O [Example 176, (3S,6R,7S)-12-hydroxy-3,6-dimethyl-1,11-dioxo-N-(2,4,6-trifluorobenzyl)-1,6,7,11-tetrahydro-3H-2,7-methanopyrido[1,2-a][1,4]diazonine-10-carboxamide] | 16.7 nM | 0.263 nM | 7770 nM | 0.829 nM | –
9 | O=C(NCc1ccc(F)cc1F)c1cn2c(c(O)c1=O)C(=O)N1C[C@@H](F)CC[C@H]2C1 (single isomer, unassigned) [Example 53-2] | 2.27 nM | 1.58 nM | 28400 nM | 6.2 nM | –
10 | C[C@@H]1CO[C@H](C)[C@H]2CN1C(=O)c1c(O)c(=O)c(C(=O)NCc3ccc(F)cc3F)cn12 [Example 197, (3R,6R,7R)—N-(2,4-difluorobenzyl)-12-hydroxy-3,6-dimethyl-1,11-dioxo-1,3,4,6,7,11-hexahydro-2,7-methanopyrido[1,2-d][1,4,7]oxadiazonine-10-carboxamide] | 8.35 nM | 0.589 nM | 22400 nM | 1.49 nM | –
11 | O=C(NCc1ccc(F)cc1F)c1cn2c(c(O)c1=O)C(=O)N1Cc3cc(F)c(F)cc3C[C@H]2C1 [Example 89, (6S)—N-(2,4-difluorobenzyl)-9,10-difluoro-1-hydroxy-2,14-dioxo-2,7,12,14-tetrahydro-6H-6,13-methanobenzo[f]pyrido[1,2-a][1,4]diazonine-3-carboxamide] | 4.39 nM | 0.669 nM | > 47900 nM | 2.38 nM | –
12 | O=C(NCc1c(F)cc(F)cc1F)c1cn2c(c(O)c1=O)C(=O)N1CCCC(CF)C2C1 (single isomer, unassigned) [Example 194-1, 6-(fluoromethyl)-12-hydroxy-1,11-dioxo-N-(2,4,6-trifluorobenzyl)-1,4,5,6,7,11-hexahydro-3H-2,7-methanopyrido[1,2-a][1,4]diazonine-10-carboxamide] | – | 0.683 nM | 10800 nM | 1.39 nM | 222 nM
13 | O=C(NCc1c(F)cc(F)cc1F)c1cn2c(c(O)c1=O)C(=O)N1CCC[C@H]3C[C@@]32C1 [Example 66-2, (1aS,11aS)—N-(2,4,6-trifluorobenzyl)-7-hydroxy-6,8-dioxo-1a,2,3,4,6,8-hexahydro-1H-5,11a-methanocyclopropa[h]pyrido[1,2-a][1,4]diazonine-9-carboxamide] | 4.55 nM | 0.294 nM | 10400 nM | 1.68 nM | –
14 | O=C(NCc1c(F)cc(F)cc1F)c1cn2c(c(O)c1=O)C(=O)N1C[C@@H]2CCC(F)(F)C1 [Example 3-2, (7S)-4,4-difluoro-12-hydroxy-1,11-dioxo-N-(2,4,6-trifluorobenzyl)-1,4,5,6,7,11-hexahydro-3H-2,7-methanopyrido[1,2-a][1,4]diazonine-10-carboxamide] | 3.86 nM | 1.6 nM | > 43300 nM | 5.4 nM | –
15 | C[C@]12Cc3cc(F)c(F)cc3CN(C1)C(=O)c1c(O)c(=O)c(C(=O)NCc3c(F)cc(F)cc3F)cn12 (single isomer, unassigned) [Example 191-2] | 1.93 nM | 0.361 nM | 11800 nM | 1.44 nM | –
16 | O=C(NCc1c(F)cc(F)cc1F)c1cn2c(c(O)c1=O)C(=O)N1CCC[C@@H](Cl)[C@H]2C1 (single isomer, unassigned) [Example 72-2] | 34 nM | 0.267 nM | 12100 nM | 4.27 nM | –
17 | C[C@@H]1C[C@H]2CN(C(=O)c3c(O)c(=O)c(C(=O)NCc4c(F)cc(F)cc4F)cn32)[C@@H](C)C1 [Example 142-1, (3S,5S,7S)-12-hydroxy-3,5-dimethyl-1,11-dioxo-N-(2,4,6-trifluorobenzyl)-1,4,5,6,7,11-hexahydro-3H-2,7-methanopyrido[1,2-a][1,4]diazonine-10-carboxamide] | 1.18 nM | 0.354 nM | 8420 nM | 1.97 nM | –
18 | O=C(NCc1c(F)cc(F)cc1F)c1cn2c(c(O)c1=O)C(=O)N1C[C@H]2CCC(F)(F)C1 [Example 3-1, (7R)-4,4-difluoro-12-hydroxy-1,11-dioxo-N-(2,4,6-trifluorobenzyl)-1,4,5,6,7,11-hexahydro-3H-2,7-methanopyrido[1,2-a][1,4]diazonine-10-carboxamide] | 71.5 nM | 0.85 nM | > 40200 nM | 4.2 nM | –
19 | O=C(NCc1ccc(F)c(Cl)c1F)c1cn2c(c(O)c1=O)C(=O)N1CCCC[C@H]2C1 [Example 51, (7S)—N-(3-chloro-2,4-difluorobenzyl)-12-hydroxy-1,11-dioxo-1,4,5,6,7,11-hexahydro-3H-2,7-methanopyrido[1,2-a][1,4]diazonine-10-carboxamide] | 2.14 nM | 0.215 nM | 4390 nM | 1.17 nM | –
20 | C[C@@H]1N2C[C@H](CCC1(C)F)n1cc(C(=O)NCc3c(F)cc(F)cc3F)c(=O)c(O)c1C2=O (stereo partly drawn) [Example 144-1, (3S,7S)-4-fluoro-12-hydroxy-3,4-dimethyl-1,11-dioxo-N-(2,4,6-trifluorobenzyl)-1,4,5,6,7,11-hexahydro-3H-2,7-methanopyrido[1,2-a][1,4]diazonine-10-carboxamide] | 2.63 nM | 0.285 nM | 9180 nM | 1.65 nM | –
21 | C[C@H]1CC[C@H](C)N2C[C@H]1n1cc(C(=O)NCc3c(F)cc(F)cc3F)c(=O)c(O)c1C2=O [Example 186, (3S,6S,7S)-12-hydroxy-3,6-dimethyl-1,11-dioxo-N-(2,4,6-trifluorobenzyl)-1,4,5,6,7,11-hexahydro-3H-2,7-methanopyrido[1,2-a][1,4]diazonine-10-carboxamide] | 60.2 nM | 0.306 nM | 11400 nM | 0.612 nM | –

From patent publication US12227520B2 (priority 2019, dated 2025)
